Assay results taken from patent US20240325557A1, “TREATMENT OF CANCER” (INNATE PHARMA, priority 2020, published 2024).

Tests used:
[1] = 349 patients; cited from earlier work
[2] = failing prior chemotherapy; cited from earlier work
[3] = system: MC-38 cells that endogenously express MDR1 P-glycoprotein engineered to express Nectin-4; assay: In vitro efficacy of ADCs in Pgp-expressing cancer model (CTG, five days); format: cell-based; conditions: presence or absence of cyclosporin A (5 μM); 150 nM ADC, normalized to control antibody
Description: MC-38 cells that endogenously express MDR1 P-glycoprotein (Pgp) were engineered to express Nectin-4 and cultured in DMEM+10% FBS. Cells were either treated with vehicle (DSMO) or with cyclosporin A (5 μM, stock solution in DMSO) known to act as an inhibitor of Pgp, in presence of ADCs.
The ADCs and the equivalent isotype control ADCs were used at dose range from 150 to 2.3 10^−3 nM. After five days of co-incubation with cells, cell viability was measured by addition of Cell Titer Glo™ (CTG) substrate. Luminescence vs. Ab concentration was plotted.

SUM185 cells = assay: In vitro ADC cytotoxicity, 5 days, CTG; format: cell-based, human; conditions: model of anti-HER2 resistance
Description: Luminescence vs. Ab concentration was plotted on graph.
For each ADC, a concentration range of ADC was incubated with nectin-4-expressing cells. After incubation, CTG substrate was added at 1/1 ratio and the luminescent signal was read with a plate reader (Enspire). It allowed quantifying the ATP present (indicator of metabolically active cells) which was proportional to cell viability.
This setting is used as a model of anti-HER2 resistance.
For each ADC, a concentration range of ADC was incubated with nectin-4-expressing cells. After incubation, CTG substrate was added at 1:1 ratio and the luminescent signal was read with a plate reader (Enspire), allowing quantification of the ATP present (indicator of metabolically active cells) which was proportional to cell viability.

[4] = UC patients; cited from earlier work
[5] = molecular target: T1, wild-type human Nectin-4 protein (huNectin4-his-BirA) (Homo sapiens, UniProt Q96NY8); assay: Affinity determination by SPR (Biacore T200); format: binding; conditions: 25° C.
T1 sequence (Q96NY8 with tags, fused parts or gaps): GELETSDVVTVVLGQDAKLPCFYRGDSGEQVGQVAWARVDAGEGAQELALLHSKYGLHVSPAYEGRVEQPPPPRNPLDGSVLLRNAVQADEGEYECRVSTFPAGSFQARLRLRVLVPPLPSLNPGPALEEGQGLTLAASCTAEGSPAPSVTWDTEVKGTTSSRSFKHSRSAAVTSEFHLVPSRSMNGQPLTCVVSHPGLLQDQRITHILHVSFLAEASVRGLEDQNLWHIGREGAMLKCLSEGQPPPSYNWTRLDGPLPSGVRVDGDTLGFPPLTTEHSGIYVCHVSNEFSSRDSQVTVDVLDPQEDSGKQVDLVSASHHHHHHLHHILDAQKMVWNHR
Description: Antibodies were tested for binding affinity to the wild-type human Nectin-4 protein by SPR (Surface Plasmon Resonance) methods. Measurements were performed on a Biacore T200 apparatus (Biacore GE Healthcare) at 25° C. Sensorgrams were analyzed with Biacore T100 Evaluation software. A CMR Sensor Chip with immobilized Protein A at about 600 RU was used. Anti-Nectin-4 antibodies were captured onto the Protein-A chip (antibodies diluted to 1 μg/ml in HBS-EP+1× buffer and injected over 120s at 40 μL/min). Recombinant human monomeric huNectin4-his-BirA protein was injected at different concentrations in a range from 100 nM to 1.56 nM over captured antibodies (HuNectin4-His-BirA diluted in HBS-EP+1× in ½ dilutions, injected over 120s at 40 μl/min) and allowed to dissociate for 600s. The chip was regenerated with NaOh 10 mM 2× for 30s at 40 μl/min. The sensorgram sets were fitted using the 1:1 kinetic binding model or two state reaction model, as a function of the profile of the curves.

SUM190 cells = assay: In vivo efficacy of ADCs, SUM190 mouse model of human breast cancer (Example 9); conditions: single i.v. injection 3 mg/kg; antibodies conjugated to ggfg-Dxd, DAR=8
Description: When tumors reached a volume between 195 and 250 mm3, mice were randomized into groups of 9 mice for intravenous treatment with a single injection of 3 mg/kg of camptothecin ADCs. Tumor growth were followed twice a week. Kaplan Meier survival curves were established by using GraphPad Prism V7 software according to the following criteria: When the tumor volume reached 1500 mm3, mice were euthanized and considered dead on the day of sacrifice (D).

wild-type human Nectin-4 = molecular target: T2, wild-type human Nectin-4 (Homo sapiens, UniProt Q96NY8); assay: Flow cytometry binding to wild-type Nectin-4 expressing CHO cells
T2 construct: expressed in transfected cells; host or cells: CHO (huNectin4 Cl.3C8)
T2 sequence (Q96NY8 32-510): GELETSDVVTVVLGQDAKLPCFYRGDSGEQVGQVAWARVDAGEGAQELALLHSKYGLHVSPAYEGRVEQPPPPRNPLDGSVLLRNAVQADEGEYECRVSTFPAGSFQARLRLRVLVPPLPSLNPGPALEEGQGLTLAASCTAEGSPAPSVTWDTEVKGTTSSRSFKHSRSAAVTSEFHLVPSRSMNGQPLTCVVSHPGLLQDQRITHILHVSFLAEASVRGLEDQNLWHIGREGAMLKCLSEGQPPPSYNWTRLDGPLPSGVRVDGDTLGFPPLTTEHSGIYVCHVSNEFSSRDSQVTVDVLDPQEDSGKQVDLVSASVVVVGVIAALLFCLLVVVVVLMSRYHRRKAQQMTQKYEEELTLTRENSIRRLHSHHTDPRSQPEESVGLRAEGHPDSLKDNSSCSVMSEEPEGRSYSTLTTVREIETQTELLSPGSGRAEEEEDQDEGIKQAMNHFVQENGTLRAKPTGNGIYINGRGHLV
Description: plates of hybridoma supernatants were tested for binding on the wild-type human Nectin-4 expressing CHO cell line by flow cytometry. Briefly, Nectin-4 expressing cells were used at 0.2×10^6 cells by well in a buffer of PBS, BSA 0.5%, EDTA 5 mM. The first antibody was incubated with cells for 1h at +5±3° C. in 50 μL of supernatant. […] Acquisition HTFC flow cytometer (Intellicyt), with data analysis on ForeCyt™ software.
(§1) The characterization of the binding of the antibodies on Nectin-4 domains was performed by flow cytometry using cells made to express the wild-type human Nectin-4 protein and cells made to express a modified Nectin-4 having the Ig-like C2 type 1 and the Ig-like C2 type 2 domains and lacking the Ig-like V domain (the C1C2 construct). The latter protein additionally bears a V5 tag for flow cytometry cell sorting, and cells were used as Nectin4-C1C2-V5 sorted cells.
Wild-type Nectin-4 (the CI.3C8 cell line), a C2 construct (containing the Ig-like C2 type 2 domain and lacking both the V and the C1 domains) and the C1C2 construct allow the determination of whether test antibodies bind to the V or different C domains. Briefly, nucleic acid sequences encoding different human Nectin-4 domains were amplified by PCR. The PCR products were inserted into an expression vector at appropriate restriction sites. […]

[6] = molecular target: T3, Hu-Nectin4 IgC1C2-V5 (modified Nectin-4 lacking the Ig-like V domain, C1C2 construct) (Homo sapiens, UniProt Q96NY8); assay: Flow cytometry binding to cells expressing the Nectin-4 C1C2 construct
T3 construct: expressed in transfected cells; host or cells: CHO
T3 sequence (Q96NY8 148-510): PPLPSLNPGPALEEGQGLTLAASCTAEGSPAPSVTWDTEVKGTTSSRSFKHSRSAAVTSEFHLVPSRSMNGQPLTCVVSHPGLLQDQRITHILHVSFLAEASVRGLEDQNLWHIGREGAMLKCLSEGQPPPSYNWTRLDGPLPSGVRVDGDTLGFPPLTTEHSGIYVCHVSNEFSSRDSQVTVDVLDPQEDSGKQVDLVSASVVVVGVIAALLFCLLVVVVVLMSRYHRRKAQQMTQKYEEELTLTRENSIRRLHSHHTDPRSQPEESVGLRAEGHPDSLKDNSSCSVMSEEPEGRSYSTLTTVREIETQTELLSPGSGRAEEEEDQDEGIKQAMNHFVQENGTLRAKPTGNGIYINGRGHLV
Description: as §1
Wild-type Nectin-4 (the CI.3C8 cell line), a C2 construct (containing the Ig-like C2 type 2 domain and lacking both the V and the C1 domains) and the C1C2 construct allow the determination of whether test antibodies bind to the V or different C domains. Briefly, nucleic acid sequences encoding different human Nectin-4 domains were amplified by PCR. The PCR products were inserted into an expression vector at appropriate restriction sites. A leader peptide, and for C1C2 and C2 an N-terminal V5 tag having the amino acid sequence […] (SEQ ID NO: 41), were added, and expression at the surface of cells was confirmed by flow cytometry. The amino acid sequences of the resulting different human Nectin-4 domain fragment-containing proteins are shown below (V5 tag underlined). The vectors were then transfected into the CHO cell line to obtain stable clones expressing the different Nectin-4 domain proteins at the cell surface.

rat Nectin-4 = assay: Flow cytometry species cross-reactivity on CHO cells; format: binding
Description: Anti-Nectin-4 antibodies were tested by flow cytometry for binding to different CHO cell lines made to express respectively the mouse, cynomolgus and rat Nectin-4 protein (including an N-terminal V5 tag not shown in the sequences below).

Sequence of rat Nectin-4 (as listed by the source): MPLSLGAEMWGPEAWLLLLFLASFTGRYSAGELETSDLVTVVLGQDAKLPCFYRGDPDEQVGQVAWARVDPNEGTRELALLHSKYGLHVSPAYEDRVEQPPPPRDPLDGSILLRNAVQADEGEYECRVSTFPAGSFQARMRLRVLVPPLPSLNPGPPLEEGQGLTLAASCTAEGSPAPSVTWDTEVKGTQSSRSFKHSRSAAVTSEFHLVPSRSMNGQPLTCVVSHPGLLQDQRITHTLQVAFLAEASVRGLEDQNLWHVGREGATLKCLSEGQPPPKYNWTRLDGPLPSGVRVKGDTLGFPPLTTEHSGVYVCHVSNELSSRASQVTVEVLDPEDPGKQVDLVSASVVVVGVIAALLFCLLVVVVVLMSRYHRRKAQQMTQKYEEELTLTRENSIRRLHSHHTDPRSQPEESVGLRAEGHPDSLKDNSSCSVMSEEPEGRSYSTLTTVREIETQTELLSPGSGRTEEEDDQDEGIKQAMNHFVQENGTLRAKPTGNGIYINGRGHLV

CC[C@@]1(O)C(=O)OCc2c1cc1n(c2=O)Cc2c-1nc1cc(F)c(C)c3c1c2[C@@H](N)CC3 [exatecan]
efficacy in addition to gemcitabine versus gemcitabine alone [1]: not superior in efficacy to gemcitabine alone

CC[C@@]1(O)C(=O)OCc2c1cc1n(c2=O)Cc2cc3c([N+](=O)[O-])cccc3nc2-1 [RFS2000]
activity in patients [2]: did not exert significant activity

PADCEV
influence of Pgp on anti-tumor activity [3]: negatively affected by Pgp | killing of SUM185 cells (cell viability) (SUM185 cells): able to kill the SUM185 more efficiently than ENHERTU | CR (complete response rate) [4]: 12% | ORR (objective response rate) [4]: 44% | discontinuation due to clinical symptoms [4]: 5% | discontinuation due to progressive disease as assessed by RECIST [4]: 48% | patients that discontinued experienced adverse events, notably neuropathy [4]: 18%

Enfortumab [reference compound]
Kd [5]: 13.7 nM | ka [5]: 340000 M⁻¹ s⁻¹ | kd [5]: 0.0047 s⁻¹ | control of tumor growth (SUM190 cells): no longer showed the ability to control tumor growth | binding to whole (wild-type) human Nectin-4 protein (wild-type human Nectin-4): bound to the whole Nectin-4 protein | binding to the C1C2 construct [6]: lost all binding to the C1C2 construct | binding to rat Nectin-4 expressing CHO cells (rat Nectin-4): bind to rat Nectin-4
